Target: T1, Bcl-2 protein (Recombinant Human Bcl-2 Protein) (Homo sapiens, UniProt P10415)
T1 construct: purchased Novus NBP2-34889
Assay: Binding evaluation of mixture library compounds to Bcl-2 using AS-MS (affinity selection mass spectrometry)
Settings: for ASMS ratio (%) n = 1: replicate n = 1; for ASMS ratio (%) n = 1 / ASMS ratio (%) n = 2: ASMS Ratio(%)=(A−C)/B×100; for ASMS ratio (%) n = 2: replicate n = 2
How it was run: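 Affinity selection MS: Bcl-2 20 μM + 1200-cpd mixture, […]/cpd, Tris pH 7.4 buffer w/ Tween-20, DTT; 1 h 23° C dark; P-2 spin SEC; MeCN/MeOH extraction; RP LC/MS. ASMS Ratio(%) = (A−C)/B×100.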

[1] = AS-MS on the mixture of 1200 library compounds
[2] = AS-MS, mixture of 1200 compounds, Bcl-2

T1 sequence (P10415 whole entry): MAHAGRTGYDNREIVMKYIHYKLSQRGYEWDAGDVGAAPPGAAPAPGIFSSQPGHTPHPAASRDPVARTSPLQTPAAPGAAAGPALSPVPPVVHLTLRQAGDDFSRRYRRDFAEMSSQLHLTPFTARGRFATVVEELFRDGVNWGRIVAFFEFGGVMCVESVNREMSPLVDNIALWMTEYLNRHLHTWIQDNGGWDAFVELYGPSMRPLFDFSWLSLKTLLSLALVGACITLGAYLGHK

CCOc1cncc(-c2ccccc2CN2CCN(c3ccc(C(=O)NS(=O)(=O)CC45CC6CC(CC(C6)C4)C5)cc3)CC2)c1 [B2A046-01, N-(1-Adamantylmethylsulfonyl)-4-[4-[[2-(5-ethoxypyridin-3-yl)phenyl]methyl]piperazin-1-yl]benzamide]
ASMS ratio (%) n = 1 (AS-MS, mixture library, Bcl-2): −2.7%
ASMS ratio (%) n = 2 (AS-MS, mixture library, Bcl-2): −22.1%

CCOc1cccc(-c2cc(OC)c(CN3CCN(c4ccc(C(=O)N(C)CC56CC7CC(CC(C7)C5)C6)cc4)CC3)c(OC)c2)c1 [B3A059-01, N-(1-Adamantylmethyl)-4-[4-[[4-(3-ethoxyphenyl)-2,6-dimethoxyphenyl]methyl]piperazin-1-yl]-N-methylbenzamide]
ASMS ratio (%) n = 1 [1]: −1.9%
ASMS ratio (%) n = 2 [1]: −8.0%

CCOc1cccc(-c2cc(CN3CCN(c4ccc(C(=O)NS(=O)(=O)c5ccc(NCCSc6ccccc6)c(C(F)(F)F)c5)cc4)CC3)cc(C(F)(F)F)c2)c1 [B2R061-01, 4-[4-[[3-(3-Ethoxyphenyl)-5-(trifluoromethyl)phenyl]methyl]piperazin-1-yl]-N-[4-(2-phenylsulfanylethylamino)-3-(trifluoromethyl)phenyl]sulfonylbenzamide]
ASMS ratio (%) (n = 1): 9.1%
ASMS ratio (%) (n = 2): −6.0%

CCOc1cncc(-c2cc(C(=O)N3CCN(c4ccc(C(=O)NS(=O)(=O)CC56CC7CC(CC(C7)C5)C6)cc4)CC3)cc(C(F)(F)F)c2)c1 [B2A040-01, N-(1-Adamantylmethylsulfonyl)-4-[4-[3-(5-ethoxypyridin-3-yl)-5-(trifluoromethyl)benzoyl]piperazin-1-yl]benzamide]
ASMS ratio (%) n = 1 (AS-MS, mixture library, Bcl-2): 0.0%
ASMS ratio (%) n = 2 (AS-MS, mixture library, Bcl-2): 0.0%

CCOc1cccc(-c2ccc(CN3CCN(c4ccc(C(=O)NS(=O)(=O)c5ccc(NCCSc6ccccc6)c(C(F)(F)F)c5)nn4)CC3)c(CC)c2)c1 [B2R075-01, 6-[4-[[4-(3-Ethoxyphenyl)-2-ethylphenyl]methyl]piperazin-1-yl]-N-[4-(2-phenylsulfanylethylamino)-3-(trifluoromethyl)phenyl]sulfonylpyridazine-3-carboxamide]
ASMS ratio (%) (n = 1): 8.6%
ASMS ratio (%) (n = 2): 0.0%

CCOc1cncc(-c2csc(CN3CCN(c4ccc(C(=O)NCC(F)(F)F)cc4)CC3)c2)c1 [B1K068-01, 4-[4-[[4-(5-Ethoxypyridin-3-yl)thiophen-2-yl]methyl]piperazin-1-yl]-N-(2,2,2-trifluoroethyl)benzamide]
ASMS ratio (%) n = 1 [2]: 2.6%
ASMS ratio (%) n = 2 [2]: −1.4%

6-[4-[2-[2-(3-Ethoxyphenyl)ethynyl]benzoyl]piperazin-1-yl]-N-propylpyridazine-3-carboxamide [B1M095-01]
ASMS ratio (%) n = 1 [1]: 0.0%
ASMS ratio (%) n = 2 [1]: 0.0%

CCOc1cncc(-c2ccccc2CN2CCN(c3ccc(C(=O)NCC45CC6CC(CC(C6)C4)C5)cc3)CC2)c1 [B1A046-01, N-(1-Adamantylmethyl)-4-[4-[[2-(5-ethoxypyridin-3-yl)phenyl]methyl]piperazin-1-yl]benzamide]
ASMS ratio (%) n = 1 [2]: 0.0%
ASMS ratio (%) n = 2 [2]: 0.0%

CCOc1cccc(-c2ccc(C(=O)N3CCN(c4ccc(C(=O)NS(=O)(=O)c5ccc(NCCSc6ccccc6)c([N+](=O)[O-])c5)cc4)CC3)cc2F)c1 [B2Q027-01, 4-[4-[4-(3-Ethoxyphenyl)-3-fluorobenzoyl]piperazin-1-yl]-N-[3-nitro-4-(2-phenylsulfanylethylamino)phenyl]sulfonylbenzamide]
ASMS ratio (%) n = 1 (AS-MS, mixture library, Bcl-2): 0.2%
ASMS ratio (%) n = 2 (AS-MS, mixture library, Bcl-2): −2.5%

CCOc1cncc(-c2ccc(CN3CCN(c4ccc(C(=O)NS(=O)(=O)C(C)(C)C)nn4)CC3)c3ccccc23)c1 [B2L092-01, N-tert-Butylsulfonyl-6-[4-[[4-(5-ethoxypyridin-3-yl)naphthalen-1-yl]methyl]piperazin-1-yl]pyridazine-3-carboxamide]
ASMS ratio (%) (n = 1): 5.5%
ASMS ratio (%) (n = 2): 7.8%

CCOc1cncc(-c2cc(CN3CCN(c4ccc(C(=O)Nc5ccc(OC)cc5)cc4)CC3)cc(OCC)c2)c1 [B1O056-01, 4-[4-[[3-Ethoxy-5-(5-ethoxypyridin-3-yl)phenyl]methyl]piperazin-1-yl]-N-(4-methoxyphenyl)benzamide]
ASMS ratio (%) n = 1 [1]: 6.7%
ASMS ratio (%) n = 2 [1]: −0.9%

CCOc1cncc(C#Cc2cc(C(=O)N3CCN(c4ccc(C(=O)N(C)CC56CC7CC(CC(C7)C5)C6)cc4)CC3)cc(C(F)(F)F)c2)c1 [B3A042-01, N-(1-Adamantylmethyl)-4-[4-[3-[2-(5-ethoxypyridin-3-yl)ethynyl]-5-(trifluoromethyl)benzoyl]piperazin-1-yl]-N-methylbenzamide]
ASMS ratio (%) n = 1 [1]: −0.2%
ASMS ratio (%) n = 2 [1]: −1.2%

CCOc1cccc(C#Cc2cncc(C(=O)N3CCN(c4ccc(C(=O)NS(=O)(=O)CC56CC7CC(CC(C7)C5)C6)cc4)CC3)c2)c1 [B2A031-01, N-(1-Adamantylmethylsulfonyl)-4-[4-[5-[2-(3-ethoxyphenyl)ethynyl]pyridine-3-carbonyl]piperazin-1-yl]benzamide]
ASMS ratio (%) n = 1 (AS-MS, mixture library, Bcl-2): 0.0%
ASMS ratio (%) n = 2 (AS-MS, mixture library, Bcl-2): 0.3%

CCOc1cncc(-c2cc(CN3CCN(c4ccc(C(=O)NS(C)(=O)=O)cc4)CC3)cc(OCC)c2)c1 [B2I056-01]
ASMS ratio (%) (n = 1): 0.0%
ASMS ratio (%) (n = 2): 0.0%

CCOc1cccc(-c2cc(C(=O)N3CCN(c4ccc(C(=O)Nc5ccc(OC)cc5)nn4)CC3)cc(C(F)(F)F)c2)c1 [B1O017-01, 6-[4-[3-(3-Ethoxyphenyl)-5-(trifluoromethyl)benzoyl]piperazin-1-yl]-N-(4-methoxyphenyl)pyridazine-3-carboxamide]
ASMS ratio (%) n = 1 [1]: 2.5%
ASMS ratio (%) n = 2 [1]: 0.0%

CCOc1cncc(-c2ccc(C(=O)N3CCN(c4ccc(C(=O)Nc5ccc(OC)cc5)cc4)CC3)c3ccccc23)c1 [B1O036-01, 4-[4-[4-(5-Ethoxypyridin-3-yl)naphthalene-1-carbonyl]piperazin-1-yl]-N-(4-methoxyphenyl)benzamide]
ASMS ratio (%) n = 1 [1]: 4.8%
ASMS ratio (%) n = 2 [1]: 0.9%

CCOc1cncc(-c2ccc(C(=O)N3CCN(c4ccc(C(=O)NS(C)(=O)=O)cc4)CC3)c3ccccc23)c1 [B2I036-01, 4-[4-[4-(5-Ethoxypyridin-3-yl)naphthalene-1-carbonyl]piperazin-1-yl]-N-methylsulfonylbenzamide]
ASMS ratio (%) n = 1 (AS-MS, mixture library, Bcl-2): −0.7%
ASMS ratio (%) n = 2 (AS-MS, mixture library, Bcl-2): 1.5%

CCOc1cncc(-c2cc(CN3CCN(c4ccc(C(=O)N(C)CC56CC7CC(CC(C7)C5)C6)cc4)CC3)cc(OC(F)(F)F)c2)c1 [B3A064-01, N-(1-Adamantylmethyl)-4-[4-[[3-(5-ethoxypyridin-3-yl)-5-(trifluoromethoxy)phenyl]methyl]piperazin-1-yl]-N-methylbenzamide]
ASMS ratio (%) n = 1 [1]: −7.5%
ASMS ratio (%) n = 2 [1]: −5.5%

CCOc1cncc(-c2ccccc2CN2CCN(c3ccc(C(=O)NS(=O)(=O)c4ccc(NCCSc5ccccc5)c(C(F)(F)F)c4)nn3)CC2)c1 [B2R072-01, 6-[4-[[2-(5-Ethoxypyridin-3-yl)phenyl]methyl]piperazin-1-yl]-N-[4-(2-phenylsulfanylethylamino)-3-(trifluoromethyl)phenyl]sulfonylpyridazine-3-carboxamide]
ASMS ratio (%) (n = 1): 21.4%
ASMS ratio (%) (n = 2): 11.4%

CCOc1cncc(-c2cc(CN3CCN(c4ccc(C(=O)NCC(F)(F)F)nn4)CC3)cc(OC(C)C)c2)c1 [B1K084-01, 6-[4-[[3-(5-Ethoxypyridin-3-yl)-5-propan-2-yloxyphenyl]methyl]piperazin-1-yl]-N-(2,2,2-trifluoroethyl)pyridazine-3-carboxamide]
ASMS ratio (%) n = 1 [2]: 0.0%
ASMS ratio (%) n = 2 [2]: 0.0%

6-[4-[4-(3-Ethoxyphenyl)thiophene-2-carbonyl]piperazin-1-yl]-N-propylpyridazine-3-carboxamide [B1M081-01]
ASMS ratio (%) n = 1 [1]: 0.0%
ASMS ratio (%) n = 2 [1]: 0.0%

CCOc1cncc(-c2ccc(C(C)N3CCN(c4ccc(C(=O)NS(=O)(=O)C(C)(C)C)cc4)CC3)cc2)c1 (stereo not shown) [B2L098-01, N-tert-Butylsulfonyl-4-[4-[1-[4-(5-ethoxypyridin-3-yl)phenyl]ethyl]piperazin-1-yl]benzamide]
ASMS ratio (%) (n = 1): 3.9%
ASMS ratio (%) (n = 2): −5.0%

CCOc1cccc(-c2ccc(CN3CCN(c4ccc(C(=O)N(C)CC56CC7CC(CC(C7)C5)C6)nn4)CC3)c3ccccc23)c1 [B3A091-01, N-(1-Adamantylmethyl)-6-[4-[[4-(3-ethoxyphenyl)naphthalen-1-yl]methyl]piperazin-1-yl]-N-methylpyridazine-3-carboxamide]
ASMS ratio (%) n = 1 [1]: −1.0%
ASMS ratio (%) n = 2 [1]: −16.5%

CCOc1cccc(-c2ccc(CN3CCN(c4ccc(C(=O)NS(=O)(=O)C(C)(C)C)nn4)CC3)cc2F)c1 [B2L077-01, N-tert-Butylsulfonyl-6-[4-[[4-(3-ethoxyphenyl)-3-fluorophenyl]methyl]piperazin-1-yl]pyridazine-3-carboxamide]
ASMS ratio (%) (n = 1): 0.0%
ASMS ratio (%) (n = 2): 0.0%

CCOc1cncc(-c2ccc(C(=O)N3CCN(c4ccc(C(=O)N(CC)CC)nn4)CC3)c3ccccc23)c1 [B4J014-01, 6-[4-[4-(5-Ethoxypyridin-3-yl)naphthalene-1-carbonyl]piperazin-1-yl]-N,N-diethylpyridazine-3-carboxamide]
ASMS ratio (%) n = 1 [1]: 0.0%
ASMS ratio (%) n = 2 [1]: −0.8%

CCOc1cncc(-c2ccc(CN3CCN(c4ccc(C(=O)NS(=O)(=O)CC56CC7CC(CC(C7)C5)C6)nn4)CC3)c3ccccc23)c1 [B2A092-01, N-(1-Adamantylmethylsulfonyl)-6-[4-[[4-(5-ethoxypyridin-3-yl)naphthalen-1-yl]methyl]piperazin-1-yl]pyridazine-3-carboxamide]
ASMS ratio (%) n = 1 (AS-MS, mixture library, Bcl-2): 20.8%
ASMS ratio (%) n = 2 (AS-MS, mixture library, Bcl-2): 16.6%
